US6090605A, “Purified porcine kidney L-fucose kinase” (The Board of Trustees of the University of Arkansas, priority 1998, dated 2000)

Key:
pig kidney fucokinase [1] = target: T1, pig kidney fucokinase (Sus scrofa, UniProt I3LTC2); test: Sugar specificity of purified fucokinase (radiolabeled sugars as phosphate acceptors); type: biochemical
T1 construct: L-Fucokinase was purified to apparent homogeneity from the cytosolic fraction of pig kidney; from tissue; host or cells: pig kidney, cytosolic fraction
T1 sequence (I3LTC2 1-1083): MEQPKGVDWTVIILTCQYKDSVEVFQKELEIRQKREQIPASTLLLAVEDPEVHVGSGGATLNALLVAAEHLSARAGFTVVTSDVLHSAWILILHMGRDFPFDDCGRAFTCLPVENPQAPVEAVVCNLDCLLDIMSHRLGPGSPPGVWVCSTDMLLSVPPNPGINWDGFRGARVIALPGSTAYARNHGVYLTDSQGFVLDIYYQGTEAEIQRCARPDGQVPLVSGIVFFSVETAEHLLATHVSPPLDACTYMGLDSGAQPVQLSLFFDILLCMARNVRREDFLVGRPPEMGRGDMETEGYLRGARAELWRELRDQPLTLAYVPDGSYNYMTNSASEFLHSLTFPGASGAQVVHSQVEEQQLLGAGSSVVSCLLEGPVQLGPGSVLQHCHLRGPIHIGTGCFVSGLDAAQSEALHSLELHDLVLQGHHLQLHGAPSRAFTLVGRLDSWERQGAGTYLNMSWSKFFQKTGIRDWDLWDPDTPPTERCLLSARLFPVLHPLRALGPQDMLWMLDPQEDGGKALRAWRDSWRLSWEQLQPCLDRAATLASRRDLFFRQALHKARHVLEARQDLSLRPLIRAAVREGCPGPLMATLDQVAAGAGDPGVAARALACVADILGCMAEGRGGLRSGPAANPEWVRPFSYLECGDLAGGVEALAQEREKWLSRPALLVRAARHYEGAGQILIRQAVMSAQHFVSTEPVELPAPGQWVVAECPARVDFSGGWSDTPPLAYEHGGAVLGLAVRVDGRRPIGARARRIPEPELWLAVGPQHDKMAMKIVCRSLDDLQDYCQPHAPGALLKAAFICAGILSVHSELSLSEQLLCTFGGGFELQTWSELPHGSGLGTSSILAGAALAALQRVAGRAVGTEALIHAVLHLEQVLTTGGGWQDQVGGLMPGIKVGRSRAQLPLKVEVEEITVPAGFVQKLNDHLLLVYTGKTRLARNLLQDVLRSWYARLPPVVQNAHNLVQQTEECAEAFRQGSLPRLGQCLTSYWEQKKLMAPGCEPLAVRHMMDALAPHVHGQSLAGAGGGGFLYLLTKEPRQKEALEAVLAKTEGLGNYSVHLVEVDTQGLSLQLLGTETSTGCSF
Description: (§1) Fucokinase activity was assayed by measuring the production of L-fucose-1-Pfrom [^3 H]L-fucose and ATP. The incubation mixtures contained the following components (final concentrations) in a total volume of 150 μl: L-fucose, 0.1 mM; ATP, 5 mM; MgSO4, 5 mM; Tris-HCl buffer, pH 8.0, 65 mM; and various amounts of enzyme at the different stages of purification. Incubations were at 37° C. for 10 minutes, and reactions were terminated by heating the reaction mixtures in a boiling water bath for 1 minute. The incubation mixtures were then applied to a column of DE-52 contained in a Pasteur pipette, and the column was washed with at least 5 column volumes of 10 mM (NH4)HCO3 to remove the unbound material. The [^3 H]fucose-1-P was then eluted with 500 mM (NH4)HCO3. Aliquots of the eluates were assayed for their radioactive content by subjecting a portion to scintillation counting.
The specificity of the kinase for various sugar substrates was examined in two different ways. In the first set of experiments, various radiolabeled sugars were tested as phosphate acceptors for the purified enzyme using the ion-exchange chromatography method for assay of activity. […] D-Arabinose, which has the same configuration at carbons 1 through 4 as L-fucose, was also a reasonable substrate for phosphorylation, and was about 10% as effective as L-fucose. On the other hand, all of the other sugars were ineffective as phosphate acceptors.

[2] = test system: pig liver L-fucokinase preparation; details: cited from earlier work
pig kidney fucokinase [3] = target: T1, pig kidney fucokinase; test: Inhibition of [3H]L-fucose phosphorylation by unlabeled monosaccharides; type: biochemical; details: unlabeled monosaccharide 500 μM; radiolabeled L-fucose substrate 100 μM
Description: as §1
Although it was possible to get a reasonable assessment of the sugar specificity of the kinase from the above experiment, it was not possible to test sugars such as D-fucose, since these sugars are not available in radioactive form. Thus, these unlabeled sugars were tested for their ability to inhibit the phosphorylation of [^3 H]L-fucose. The rationale for this experiment is that a sugar that inhibits the phosphorylation of L-fucose would probably compete with L-fucose for the phosphorylation (i.e., active) site.

pig kidney fucokinase [4] = target: T1, pig kidney fucokinase; test: Inhibition of fucokinase by GDP-L-fucose and other GDP-linked sugars; type: biochemical
Description: as §1
It can be seen that the amount of inhibition of fucokinase increased with increasing amounts of GDP-L-fucose, and the Ki for GDP-L-fucose was estimated to be about 10 μM.

[5] = substrate: C[C@H](O)[C@@H](O)[C@@H](O)[C@H](O)C=O; test: Effect of substrate concentration on velocity (Lineweaver-Burke, Km); type: biochemical, pig; details: other: 5 mM ATP and 5 mM Mg++; pH 8.0; 37.0 °C
Description: as §1
(§2) The effect of concentration of the substrates, L-fucose and ATP, on the velocity of the reaction was determined. The Km for L-fucose was determined at saturating concentrations of the other substrates, i.e., 5 mM ATP and 5 mM Mg^++. […] A similar experiment was performed with ATP. In this case, the reactions were done in the presence of 5 mM Mg^++ and 100 μM L-fucose. The Km for ATP was estimated to be 600 μM (data not shown).

[6] = substrate: Nc1ncnc2c1ncn2[C@@H]1O[C@H](COP(=O)(O)OP(=O)(O)OP(=O)(O)O)[C@@H](O)[C@H]1O; test: as above; type: biochemical, pig; details: other: 5 mM Mg++ and 100 μM L-fucose; pH 8.0; 37.0 °C
Description: as §1, §2

O=C[C@@H](O)[C@@H](O)[C@H](O)[C@H](O)CO [D-mannose]
activity as phosphate acceptor (in words) (pig kidney fucokinase [1]; purified enzyme): does not phosphorylate | Specific Activity (pig kidney fucokinase [1]; radiolabeled sugar 100 μM as phosphate acceptor): 0 nmole/mg protein | rate of phosphorylation compared with L-fucose (in words) [2]: about the same rate or better | Relative Activity (%) (pig kidney fucokinase [3]): 100%

C[C@@H]1O[C@H](OP(=O)(O)OP(=O)(O)OC[C@H]2O[C@@H](n3cnc4c(=O)[nH]c(N)nc43)[C@H](O)[C@@H]2O)[C@@H](O)[C@H](O)[C@@H]1O [GDP-L-fucose]
Ki (pig kidney fucokinase [4]; 100 μM [3H]fucose, 5 mM ATP, 5 mM Mg++, pH 8.0): ~10 µM

C[C@@H]1O[C@H](OP(=O)(O)O)[C@@H](O)[C@H](O)[C@@H]1O [L-fucose-1-P]
inhibition of the fucokinase (in words) (pig kidney fucokinase [4]): did not inhibit

Nc1nc2c(ncn2[C@@H]2O[C@H](COP(=O)(O)OP(=O)(O)O[C@H]3O[C@H](CO)[C@@H](O)[C@H](O)[C@@H]3O)[C@@H](O)[C@H]2O)c(=O)[nH]1 [GDP-D-mannose]
inhibition of the fucokinase (in words) (pig kidney fucokinase [4]): did not inhibit

B1: pig kidney fucokinase (Sus scrofa) (protein)
chain: MEQPKGVDWTVIILTCQYKDSVEVFQKELEIRQKREQIPASTLLLAVEDPEVHVGSGGATLNALLVAAEHLSARAGFTVVTSDVLHSAWILILHMGRDFPFDDCGRAFTCLPVENPQAPVEAVVCNLDCLLDIMSHRLGPGSPPGVWVCSTDMLLSVPPNPGINWDGFRGARVIALPGSTAYARNHGVYLTDSQGFVLDIYYQGTEAEIQRCARPDGQVPLVSGIVFFSVETAEHLLATHVSPPLDACTYMGLDSGAQPVQLSLFFDILLCMARNVRREDFLVGRPPEMGRGDMETEGYLRGARAELWRELRDQPLTLAYVPDGSYNYMTNSASEFLHSLTFPGASGAQVVHSQVEEQQLLGAGSSVVSCLLEGPVQLGPGSVLQHCHLRGPIHIGTGCFVSGLDAAQSEALHSLELHDLVLQGHHLQLHGAPSRAFTLVGRLDSWERQGAGTYLNMSWSKFFQKTGIRDWDLWDPDTPPTERCLLSARLFPVLHPLRALGPQDMLWMLDPQEDGGKALRAWRDSWRLSWEQLQPCLDRAATLASRRDLFFRQALHKARHVLEARQDLSLRPLIRAAVREGCPGPLMATLDQVAAGAGDPGVAARALACVADILGCMAEGRGGLRSGPAANPEWVRPFSYLECGDLAGGVEALAQEREKWLSRPALLVRAARHYEGAGQILIRQAVMSAQHFVSTEPVELPAPGQWVVAECPARVDFSGGWSDTPPLAYEHGGAVLGLAVRVDGRRPIGARARRIPEPELWLAVGPQHDKMAMKIVCRSLDDLQDYCQPHAPGALLKAAFICAGILSVHSELSLSEQLLCTFGGGFELQTWSELPHGSGLGTSSILAGAALAALQRVAGRAVGTEALIHAVLHLEQVLTTGGGWQDQVGGLMPGIKVGRSRAQLPLKVEVEEITVPAGFVQKLNDHLLLVYTGKTRLARNLLQDVLRSWYARLPPVVQNAHNLVQQTEECAEAFRQGSLPRLGQCLTSYWEQKKLMAPGCEPLAVRHMMDALAPHVHGQSLAGAGGGGFLYLLTKEPRQKEALEAVLAKTEGLGNYSVHLVEVDTQGLSLQLLGTETSTGCSF
notes: L-Fucokinase was purified to apparent homogeneity from the cytosolic fraction of pig kidney; from tissue; host or cells: pig kidney, cytosolic fraction
Km [5]: 27 µM | Km [6]: 600 µM
